Several values for one entry are separate records, joined by “and”; a condition that tells them apart may be missing. Equal values may be shown once.

The target in one data set is T1, Igf2bp1 KH12 di-domain (Homo sapiens, UniProt Q9NZI8).
T1 construct: 6xHis/GST (N, cleaved yes); made in house; host or cells: E. coli BL21(DE3)
Briefly: MST, Igf2bp1 KH12 di-domain. The data set is classed as binding. As for the experimental part:
(§1) Recombinant full-length Igf2bp1 protein was labelled with RED-tris-NTA dye using a Monolith NT His-Tag Labelling Kit (NanoTemper) while RRM12, KH12 and KH34 di-domain peptides were labelled using the Protein Labelling Kit RED NHS 2nd generation (NanoTemper). Labelled proteins were spun at 15,000 g for 5 min to eliminate aggregates. All samples were 2X labelled protein mix of Igf2bp1 (200 nM) in PBST and were combined (1:1) with serial dilutions of compound or Kras6 RNA in binding buffer (10mMTris pH = 7.5, 100 mM NaCl, 0.1 mM EDTA, 0.06% IPEGAL, 0.02 μg/μL tRNA, 2 mM DTT, 0.1 μg/μL heparin) in final volume of 20 μL, room temperature for 15 min. Samples were then loaded into standard capillaries (NanoTemper) and read in the Monolith NT.115 scanner (NanoTemper) using the red filter with reading conditions of 95% LED power and 40% MST power, 5 sec fluorescence before, 30 sec MST on, 5 sec fluorescence after and 25 sec delay between samples. Results were analysed using the MO Control software (NanoTemper) for curve fitting to KD.
(§2) The open reading frame of Igf2bps were cloned into the pET-21(d) plasmid (Novagen) between the Nco1 and Xho1 sites, as previously described. […]

For the next data set, the target named is T2, Igf2bp1 KH34 di-domain (Homo sapiens, UniProt Q9NZI8).
T2 construct: Human Igf2bp1 di-domains RRM12 (M1-P188) and KH34 (P387-A574); 6xHis (N, cleaved yes); made in house; host or cells: E. coli BL21(DE3)
Briefly: MST, Igf2bp1 KH34 di-domain. Particulars: read-out: KD of binding to KH34. As for the experimental part:
as §1, §2

Data set [1] relates to wild-type luciferase in RKO cells. Nature of the data set: Control (wild-type) luciferase in RKO cells. The data set is classed as cell-based. Particulars: 50 μM 7773. As for the experimental part:
The RKO cells were seeded in DMEM with 10% calf serum 24 hrs prior to the transfection. Transfection was done using Lipofectamine 2000 with reporter plasmids and Renilla-luciferase expressing vector (as internal control). After 24 hrs, cells were lysed using passive lysis buffer (Promega catalogue # E1941). The lysates were cleared by centrifugation and its 20 μL volume was mixed with 100 μL of luciferase substrate solution for luminescence recording which was followed by addition of 100 μL of Stop-glo solution (Promega catalogue # E1910) with an additional luminescence reading. Both readings were detected by using GloMax 20/20 Luminometer (Promega), and the final value for each sample was the ratio of their two respective readings. To test the effects of 7773, transfected cells with reporter plasmids were washed with PBS after 24 hrs of transfection and incubated with medium containing 7773.

Data set [2] relates to Kras protein in H1299 cells. Briefly: Western blot of Kras protein in H1299 cells. The following applies: H1299, 10 and 20 μM 7773, 48 hours. The data set is classed as cell-based, human. As for the experimental part: Western blots were performed as described. For fluorescent westerns, cell lysates were prepared with phosphatase inhibitors (β-Glycerophosphate and Sodium orthovanadate) and a protease inhibitor (cOmplete™, Mini Protease Inhibitor Cocktail, Roche 04693124001), membranes were read using a Li-Core Odyssey laser scanner, and results analysed using Image Studio Lite software.
The following primary antibodies were used: mouse anti-total ERK (p44/42 MAPK (Erk1/2) L34 F12 Cell Signalling 4696s), mouse anti-Kras (CPTC-KRAS4B-2, DSHB) rabbit anti-dpERK, (p44/42 MAPK, Cell Signalling 4370), rabbit anti-alpha/beta tubulin (Cell Signalling 2148), goat anti-rabbit IgG-HRP (Jackson), goat anti-mouse IgG-HRP (Jackson). Secondary antibodies for fluorescent westerns: donkey anti-mouse 800 (Rockland 610–732-124), goat anti-rabbit 680 (Molecular Probes A21076).
(In general: Immunoblotting shows a protein as a band on a membrane.)

Data set [3] deals with HEK293 cells. Nature of the data set: Wound healing (cell migration) assay, HEK293. Format: cell-based, human. How it is done:
Cells were seeded in 96 IncuCyte® ImageLock plates (20X10^3 cells per well) for 24 hours, to a near confluency of 95%, before the addition of increasing concentrations of compound. After a further 24 hours, wells were scratched using the IncuCyte® 96-well WoundMaker Tool, and the cells cultured for an additional 48 hours using the IncuCyte® S3 Live-Cell Analysis System (Essen BioScience). The plate was imaged at increments of 120 minutes for a period of 48 hours, and then analysed for relative wound healing.

Data set [4] deals with HEK293 cells. Nature of the data set: Cell proliferation assay (Incucyte), HEK293. Format: cell-based, human. The following applies: HEK293, up to 20 μM. How it is done: ES2, H1299 and HEK293 cells were seeded in a 96 well plate (5X10^3 cells per well) for 24 hours before adding the compound at increasing concentrations. After an additional 24 hours, the plate was incubated in an IncuCyte® S3 Live-Cell Analysis System (Essen BioScience). The wells were filmed for 72 hours, and then analysed for proliferation rate Using IncuCyte® S3 Live-Cell Analysis System (Essen BioScience)

A further data set concerns H1299 cells. Briefly: Growth in soft agar, H1299. Format: cell-based, human. Particulars: H1299, 20 μM 7773. As for the experimental part: Cells were grown for 12 hours in 6 well plates prior to incubation with the compound or DMSO for an additional 48 hours, 2000 cells were suspended in 0.3% agar-complete medium and then seeded in triplicates onto a 0.6% agar-complete medium base in a 6 well plate. After one week, the colonies were fed with 0.3% agar-complete medium, and after 2 additional weeks, imaged and quantified.

T2 sequence (Q9NZI8 387-574): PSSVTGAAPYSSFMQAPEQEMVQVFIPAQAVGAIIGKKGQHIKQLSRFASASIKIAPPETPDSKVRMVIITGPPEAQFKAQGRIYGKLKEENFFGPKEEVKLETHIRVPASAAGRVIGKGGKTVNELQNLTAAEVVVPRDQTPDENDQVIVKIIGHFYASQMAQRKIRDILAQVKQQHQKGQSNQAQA
T1 sequence (Q9NZI8 194-369): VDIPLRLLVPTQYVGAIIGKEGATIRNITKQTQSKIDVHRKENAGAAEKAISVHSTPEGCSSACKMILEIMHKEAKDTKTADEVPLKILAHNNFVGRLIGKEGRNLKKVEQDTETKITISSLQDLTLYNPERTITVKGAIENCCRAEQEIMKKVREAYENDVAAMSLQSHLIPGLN

One may read the Kd as the constant that tells how readily two partners part at equilibrium. In the case of `O=C(c1ccc(Cn2cnnn2)cc1)N1CCCC(Nc2ccc3c(c2)OCO3)C1` (centres unmarked) [compound 7773], the “Binding to KH12” value on Igf2bp1 KH12 di-domain was “no binding was observed”. The dissociation constant Kd on Igf2bp1 KH34 di-domain was 7.1 µM and 7.2 µM. The “Effect on activity of wild-type luciferase” value in data set [1] is reported as “did not affect”. In data set [2], the Kras protein level entry is reported as “dose-dependent reduction”. The Wound healing entry in the data set with HEK293 cells [3] (HEK293, 20 μM) was “strongly inhibited”; in the data set with HEK293 cells [3] (HEK293, lowest concentration 5 μM), “discernible inhibition”. For the same molecule, the Cell proliferation entry in the data set on HEK293 cells [4] is “remarkably unaffected”. The “Ability to form colonies in soft agar” value with H1299 cells is “dramatically inhibited”.

The values are drawn from publication PMC8794255, “Small molecule inhibitor of Igf2bp1 represses Kras and a pro-oncogenic phenotype in cancer cells” (RNA Biology, 2021).
